{"source": "paper PMC6547681", "about": "(Nature Communications, 2019)", "system": "BCL-2 WT", "test": "Steady-state competition SPR against immobilised BIMBH3 peptide, BCL-2 WT", "type": "binding, human", "conditions": "for Ki: BCL-2 WT", "protocol": "SPR experiments were performed as previously described. […] The lowest concentrations used in direct binding experiments were 1 nM for BIAcore 4000 and 0.1 nM for BIAcore S200 instruments, concentrations below these were below the sensitivity thresholds for the instruments. […] Direct binding experiments were fitted to a 1:1 binding site kinetic model, fitting on and off rates, in BIAevaluation software. For competition experiments steady-state responses were determined in BIAevaluation software according to the software defaults in affinity evaluation mode averaging responses for 5 sec. […] All affinity measurements were performed in at least two independent experiments using independent protein preparations.", "note": "Several values for one entry are separate records, joined by “and”; a condition that tells them apart may be missing. Equal values may be shown once. Read-outs that look alike come from different tables or passages of the source.", "data": [{"smiles": "O=C(c1cc(-c2cc3c(cc2C(=O)N2Cc4ccccc4C[C@H]2CN2CCOCC2)OCO3)n2c1CCCC2)N(c1ccccc1)c1ccc(O)cc1", "note": "[S55746]", "values": [{"measurement": "Raw data values in Figure 3f (SPR response)", "setting": "S55746 concentration 40, BCL-2 concentration 40 nM, independent experiment 2", "value": 135.922}, {"measurement": "Raw data values in Figure 3f (SPR response)", "setting": "S55746 concentration 40, BCL-2 concentration 40 nM, independent experiment 3", "value": 43.3243}, {"measurement": "Raw data values in Figure 3f (SPR response)", "setting": "S55746 concentration 40, BCL-2 concentration 50 nM, independent experiment 1", "value": 78.7968}, {"measurement": "Raw data values in Figure 3f (SPR response)", "setting": "S55746 concentration 40, BCL-2 concentration 50 nM, independent experiment 3", "value": 49.1674}, {"measurement": "Raw data values in Figure 3f (SPR response)", "setting": "S55746 concentration 40, BCL-2 concentration 60 nM, independent experiment 1", "value": 84.5822}, {"measurement": "Raw data values in Figure 3f (SPR response)", "setting": "S55746 concentration 40, BCL-2 concentration 60 nM, independent experiment 3", "value": 58.6901}, {"measurement": "Raw data values in Figure 3f (SPR response)", "setting": "S55746 concentration 40, BCL-2 concentration 70 nM, independent experiment 1", "value": 88.5391}, {"measurement": "Raw data values in Figure 3f (SPR response)", "setting": "S55746 concentration 40, BCL-2 concentration 70 nM, independent experiment 3", "value": 64.9952}, {"measurement": "Raw data values in Figure 3f (SPR response)", "setting": "S55746 concentration 40, BCL-2 concentration 80 nM, independent experiment 1", "value": 89.9035}, {"measurement": "Raw data values in Figure 3f (SPR response)", "setting": "S55746 concentration 40, BCL-2 concentration 80 nM, independent experiment 3", "value": 69.0967}, {"measurement": "Raw data values in Figure 3f (SPR response)", "setting": "S55746 concentration 40, BCL-2 concentration 100 nM, independent experiment 1", "value": 92.2307}, {"measurement": "Raw data values in Figure 3f (SPR response)", "setting": "S55746 concentration 40, BCL-2 concentration 100 nM, independent experiment 3", "value": 75.0006}, {"measurement": "Raw data values in Figure 3f (SPR response)", "setting": "S55746 concentration 40, BCL-2 concentration 150 nM, independent experiment 1", "value": 94.9838}, {"measurement": "Raw data values in Figure 3f (SPR response)", "setting": "S55746 concentration 40, BCL-2 concentration 150 nM, independent experiment 3", "value": 84.1638}, {"measurement": "Raw data values in Figure 3f (SPR response)", "setting": "S55746 concentration 40, BCL-2 concentration 200 nM, independent experiment 1", "value": 96.8989}, {"measurement": "Raw data values in Figure 3f (SPR response)", "setting": "S55746 concentration 40, BCL-2 concentration 200 nM, independent experiment 3", "value": 89.8321}, {"measurement": "Raw data values in Figure 3f (SPR response)", "setting": "S55746 concentration 60, BCL-2 concentration 10 nM, independent experiment 1", "value": 3.3753}, {"measurement": "Raw data values in Figure 3f (SPR response)", "setting": "S55746 concentration 60, BCL-2 concentration 10 nM, independent experiment 3", "value": 1.1233}, {"measurement": "Raw data values in Figure 3f (SPR response)", "setting": "S55746 concentration 60, BCL-2 concentration 20 nM, independent experiment 1", "value": 7.929}, {"measurement": "Raw data values in Figure 3f (SPR response)", "setting": "S55746 concentration 60, BCL-2 concentration 20 nM, independent experiment 3", "value": 2.648}, {"measurement": "Raw data values in Figure 3f (SPR response)", "setting": "S55746 concentration 60, BCL-2 concentration 30 nM, independent experiment 1", "value": 13.853}, {"measurement": "Raw data values in Figure 3f (SPR response)", "setting": "S55746 concentration 60, BCL-2 concentration 30 nM, independent experiment 3", "value": 4.966}, {"measurement": "Raw data values in Figure 3f (SPR response)", "setting": "S55746 concentration 60, BCL-2 concentration 40 nM, independent experiment 1", "value": 26.5524}, {"measurement": "Raw data values in Figure 3f (SPR response)", "setting": "S55746 concentration 60, BCL-2 concentration 40 nM, independent experiment 3", "value": 9.938}, {"measurement": "Raw data values in Figure 3f (SPR response)", "setting": "S55746 concentration 60, BCL-2 concentration 50 nM, independent experiment 1", "value": 51.4643}, {"measurement": "Raw data values in Figure 3f (SPR response)", "setting": "S55746 concentration 60, BCL-2 concentration 50 nM, independent experiment 3", "value": 23.6574}, {"measurement": "Raw data values in Figure 3f (SPR response)", "setting": "S55746 concentration 60, BCL-2 concentration 60 nM, independent experiment 1", "value": 75.6075}, {"measurement": "Raw data values in Figure 3f (SPR response)", "setting": "S55746 concentration 60, BCL-2 concentration 60 nM, independent experiment 3", "value": 44.7291}, {"measurement": "Raw data values in Figure 3f (SPR response)", "setting": "S55746 concentration 60, BCL-2 concentration 70 nM, independent experiment 1", "value": 83.0032}, {"measurement": "Raw data values in Figure 3f (SPR response)", "setting": "S55746 concentration 60, BCL-2 concentration 70 nM, independent experiment 3", "value": 55.5781}, {"measurement": "Raw data values in Figure 3f (SPR response)", "setting": "S55746 concentration 60, BCL-2 concentration 80 nM, independent experiment 1", "value": 87.1926}, {"measurement": "Raw data values in Figure 3f (SPR response)", "setting": "S55746 concentration 60, BCL-2 concentration 80 nM, independent experiment 3", "value": 62.5167}, {"measurement": "Raw data values in Figure 3f (SPR response)", "setting": "S55746 concentration 60, BCL-2 concentration 100 nM, independent experiment 1", "value": 90.81}, {"measurement": "Raw data values in Figure 3f (SPR response)", "setting": "S55746 concentration 60, BCL-2 concentration 100 nM, independent experiment 3", "value": 70.2062}, {"measurement": "Raw data values in Figure 3f (SPR response)", "setting": "S55746 concentration 60, BCL-2 concentration 150 nM, independent experiment 1", "value": 94.4799}, {"measurement": "Raw data values in Figure 3f (SPR response)", "setting": "S55746 concentration 60, BCL-2 concentration 150 nM, independent experiment 3", "value": 81.267}, {"measurement": "Raw data values in Figure 3f (SPR response)", "setting": "S55746 concentration 60, BCL-2 concentration 200 nM, independent experiment 1", "value": 96.2757}, {"measurement": "Raw data values in Figure 3f (SPR response)", "setting": "S55746 concentration 60, BCL-2 concentration 200 nM, independent experiment 3", "value": 87.9958}, {"measurement": "Raw data values in Figure 3f (SPR response)", "setting": "S55746 concentration 80, BCL-2 concentration 1 nM, independent experiment 2", "value": 1.2215}, {"measurement": "Raw data values in Figure 3f (SPR response)", "setting": "S55746 concentration 80, BCL-2 concentration 3 nM, independent experiment 2", "value": 2.493}, {"measurement": "Raw data values in Figure 3f (SPR response)", "setting": "S55746 concentration 80, BCL-2 concentration 4 nM, independent experiment 2", "value": 3.639}, {"measurement": "Raw data values in Figure 3f (SPR response)", "setting": "S55746 concentration 80, BCL-2 concentration 6 nM, independent experiment 2", "value": 4.673}, {"measurement": "Raw data values in Figure 3f (SPR response)", "setting": "S55746 concentration 80, BCL-2 concentration 8 nM, independent experiment 2", "value": 5.6951}, {"measurement": "Raw data values in Figure 3f (SPR response)", "setting": "S55746 concentration 80, BCL-2 concentration 9 nM, independent experiment 2", "value": 6.782}, {"measurement": "Raw data values in Figure 3f (SPR response)", "setting": "S55746 concentration 80, BCL-2 concentration 11 nM, independent experiment 2", "value": 7.791}, {"measurement": "Raw data values in Figure 3f (SPR response)", "setting": "S55746 concentration 80, BCL-2 concentration 12 nM, independent experiment 2", "value": 8.945}, {"measurement": "Raw data values in Figure 3f (SPR response)", "setting": "S55746 concentration 80, BCL-2 concentration 16 nM, independent experiment 2", "value": 11.2715}, {"measurement": "Raw data values in Figure 3f (SPR response)", "setting": "S55746 concentration 80, BCL-2 concentration 24 nM, independent experiment 2", "value": 17.5573}, {"measurement": "Raw data values in Figure 3f (SPR response)", "setting": "S55746 concentration 80, BCL-2 concentration 40 nM, independent experiment 2", "value": 30.3087}, {"measurement": "Ki", "setting": "read-out: S55746 KI (mean), competition vs BIMBH3 SPR surface, mean ± SD, n ≥ 2", "value": "0.36 nM and 0.356 nM"}, {"measurement": "Ki", "setting": "read-out: S55746 KI, single independent experiments, independent experiments 1-3", "value": "0.358 nM and 0.372 nM and 0.338 nM"}]}]}
